Laboratory results: patent US9273115B2, “Method for controlling the biological activity of a protein in a vertebrate cell” (CENTRE NATIONAL DE LA RECHERCHE SCIENTIFIQUE (CNRS), priority 2009, dated 2016)
Changes are numbered by the printed parent chain.

Key:
Cre-ERM^Db [1] = molecular target: T1, Cre-ERM^Db (Homo sapiens, UniProt P03372, A350M/G400V/G521S/L346I/M388Q/Y526D); test: X-Gal staining of skin sections of K14-Cre-ERM^Db/RosaR26R mice (Cre-mediated recombination in keratinocytes); details: for Cre-mediated recombination in keratinocytes expressing Cre-ERM^Db: ear treatment 1 mg/day for 5 days, ear sections at day 12; for Cre-mediated recombination in Cre-ERM^Db-expressing keratinocytes of ear skin (distal) / Cre-mediated recombination in Cre-ERM^Db-expressing keratinocytes of tail treated skin: daily tail topical treatment 1 or 0.2 mg for 5 days
T1 sequence (P03372 311-547 L346I/A350M/M388Q/G400V/G521S/Y526D limits assumed): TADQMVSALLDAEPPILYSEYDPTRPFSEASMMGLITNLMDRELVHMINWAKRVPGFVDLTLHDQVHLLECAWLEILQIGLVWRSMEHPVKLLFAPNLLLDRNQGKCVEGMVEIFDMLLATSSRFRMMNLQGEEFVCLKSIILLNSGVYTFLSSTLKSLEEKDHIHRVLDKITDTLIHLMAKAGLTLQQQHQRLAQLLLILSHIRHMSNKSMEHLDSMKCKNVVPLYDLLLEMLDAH
Experimental: For topical application, DHB, DHBD, HMB or MB dissolved in ethanol at 100 mg/ml was diluted two times in acetone, and 20 μl (1 mg) was daily applied on one cm^2 ear or tail skin for 5 days. For intraperitoneal and gavage administration, compounds dissolved in ethanol were diluted at 10 mg/ml in sunflower oil, and 100 μl were i.p. injected or orally administered to mice.
β-Galactosidase histochemistry was performed on 10 μm-thick frozen section, stained with X-Gal (5-bromo-4-chloro-3-indolyl β-D-galactoside), as described (Brocard et al., 1997).

Cre-ERM^Db [2] = molecular target: T1, Cre-ERM^Db
Experimental: (§1) F9^+/(LNL) cells (Clifford et al., 1996; Metzger et al., 1995) were coelectroporated with 5 μg pCre-ER expression vectors and 1 μg pPGK-hyg, that had been digested with AseI and PvuII, respectively. Hygromycin-resistant clones were obtained as described (Metzger et al., 1995). To analyse Cre-mediated DNA excision, such clones were plated in 24-well plates at a density of 6×10^3 cells, and grown in the presence of 100 nM all-trans retinoic acid (RA). […] PCR amplification of a segment of the RXRα WT allele (+) and recombined RXRα (Δ) allele from their genomic DNA was carried out using the primers 5′-[…]-3′ (SEQ ID No. 1) and 5′-[…]-3′ (SEQ ID No. 2) (+, ˜300 bp; Δ, ˜350 bp), as described (Feil et al., 1997).

Cre-ERM^Dc [3] = molecular target: T2, Cre-ERM^Dc (Homo sapiens, UniProt P03372, A350M/G442Y/G521S/L346I/L466S/M388Q/Y459N/Y526D); test: Immunocytochemistry of Cre-ERM^Dc (translocation from cytoplasm to nucleus); format: cell-based; set-up: Cre recombinase (bacteriophage P1); expressed in transfected cells; host or cells: Cos-1 cells (transient, pCre-ERM^Dc) for A3; details: data not shown
T2 sequence (P03372 311-547 L346I/A350M/M388Q/G442Y/Y459N/L466S/G521S/Y526D limits assumed): T1 sequence (P03372 311-547 L346I/A350M/M388Q/G400V/G521S/Y526D limits assumed) with V90G, G132Y, Y149N, L156S
Experimental: (§2) Cos-1 cells grown on Lab-TekII chamber slides (Nalge Nunc International) were transfected with 0.25 μg pCre-ERM expression vectors with Fugene, according to the manufacturer's instruction and treated with vehicle (ethanol) or 3 μM DHB for 24 hrs.

Cre-ERM^Da [4] = molecular target: T3, Cre-ERM^Da (Homo sapiens, UniProt P03372, A350M/G521S/L346I/M388Q/Y526D); test: PCR detection of Cre-mediated floxed DNA excision in Cre-ERM^Da/RXRα^+/(LNL) F9 cells; format: cell-based, mouse; set-up: a fusion protein between Cre and the L346I, A350M, M388Q, G521S, Y526D mutant ERα LBD; Cre recombinase (bacteriophage P1); expressed in transfected cells; details: 3 μM DHB, 3 days
T3 sequence (P03372 311-547 L346I/A350M/M388Q/G521S/Y526D limits assumed): T1 sequence (P03372 311-547 L346I/A350M/M388Q/G400V/G521S/Y526D limits assumed) with V90G
Experimental: as §1

Cre-ERM^Db [5] = molecular target: T1, Cre-ERM^Db; test: Immunocytochemistry of pCre-ERM^Db-transfected Cos-1 cells (nuclear translocation); format: cell-based, monkey; set-up: Cre recombinase (bacteriophage P1); expressed in transfected cells; host or cells: Cos-1 cells (transient, pCre-ERM^Db) for A2; details: 3 μM DHB for 24 hrs
Experimental: as §2

Cre-ERM^Da [6] = molecular target: T3, Cre-ERM^Da; test: Immunocytochemistry of pCre-ERM^Da-transfected Cos-1 cells (nuclear translocation); format: cell-based, African green monkey; set-up: a fusion protein between Cre and the L346I, A350M, M388Q, G521S, Y526D mutant ERα LBD; Cre recombinase (bacteriophage P1); expressed in transfected cells; host or cells: Cos-1 cells (transient, pCre-ERM^Da) for A1; details: 3 μM DHB for 24 hrs
Experimental: as §2

Cre-ERM^Dc [7] = molecular target: T2, Cre-ERM^Dc; test: PCR detection of Cre-mediated floxed DNA excision in Cre-ERM^Dc/RXRα^+/(LNL) F9 cells; format: cell-based; set-up: Cre recombinase (bacteriophage P1); expressed in transfected cells; details: F9 clone; one of 9 active clones
Experimental: as §1

[8] = Liver histology of treated mice; format: in vivo; details: DHB-treated mice
[9] = Blood hematology and plasma biochemical profile at D19; format: in vivo, mice; set-up: Bilirubin / Uric acid / Iron: unit not given here; details: for ALAT / ALP / ASAT / Albumin / Bilirubin / Cholesterol / Glucose / HCT, hematocrit / HGB, hemoglobin / Iron / K / MCH, mean corpuscular hemoglobin / MCHC, mean corpuscular hemoglobin concentration / MCV, mean corpuscular volume / Magnesium / Na / Phosphorus / Total protein / Triglycerides / Uric acid: 1 mg daily ip D1 to D5, means +/− SD, n = 3
[10] = Plasma levels after i.p. administration; format: in vivo, mice
Experimental: For intraperitoneal and gavage administration, compounds dissolved in ethanol were diluted at 10 mg/ml in sunflower oil, and 100 μl were i.p. injected or orally administered to mice.

Compound: 4,4′-methoxybenzyl [MB]
- Cre-mediated recombination in keratinocytes expressing Cre-ERM^Db (Cre-ERM^Db [1]): efficiently induced

Compound: 4-hydroxytamoxifen [OHT]
- Cre-ERM^Db recombinase activity (Cre-ERM^Db [2]): neither E2 nor OHT induced any recombinase activity

Compound: O=C(C(=O)c1ccc(O)cc1)c1ccc(O)cc1 [DHB, 4,4′-dihydroxybenzil]
- translocation of Cre-ERM^Dc from the cytoplasm to the nucleus (Cre-ERM^Dc [3]): induced translocation
- Cre-ERM^Da recombinase activity (Cre-ERM^Da [4]): induced Cre-ERM^Da recombinase activity
- Cre-ERM^Db nuclear translocation (Cre-ERM^Db [5]): induced its nuclear translocation
- β-galactosidase expression in epidermal keratinocytes (Cre-ERM^Db [1]; 1 mg topically to one ear D1 to D5, treated ear sampled at D12): most, if not all epidermal keratinocytes from the treated ear expressed β-galactosidase
- Cre-mediated recombination in Cre-ERM^Db-expressing keratinocytes of ear skin (distal) (Cre-ERM^Db [1]): induced efficient Cre-mediated recombination
- Cre-mediated recombination in Cre-ERM^Db-expressing keratinocytes of tail treated skin (Cre-ERM^Db [1]): induced efficient Cre-mediated recombination
- Cre-mediated recombination in keratinocytes expressing Cre-ERM^Db (Cre-ERM^Db [1]): efficiently induced
- β-galactosidase expression in epidermal keratinocytes (Cre-ERM^Db [1]; gavage 2 mg/day for 5 days): induced
- β-galactosidase expression in epidermal keratinocytes (Cre-ERM^Db [1]; intraperitoneal injection 1 mg/day for 5 days): induced
- Cre-ERM^Da protein nuclear translocation (Cre-ERM^Da [6]): induced Cre-ERM^Da protein nuclear translocation
- Cre-ERM^Dc Cre-mediated recombinase activity (Cre-ERM^Dc [7]): strictly DHB-dependent
- histological defects in liver [8]: no histological defects
- blood hematology and plasma biochemical profiles versus vehicle ([9]; 1 mg daily ip D1 to D5): did not reveal major difference
- ALAT ([9]; female mice): 27.7 +/− 2.9 U/l
- ALP ([9]; female mice): 137.0 +/− 14.1 U/l
- ASAT ([9]; female mice): 143.3 +/− 91.3 U/l
- Albumin ([9]; female mice): 28.7 ± 0.6 g/L
- Bilirubin ([9]; female mice): 1.3 +/− 0.4
- Cholesterol ([9]; female mice): 1.8 ± 0.1 mmol/L
- Glucose ([9]; female mice): 18.7 ± 3.5 mmol/L
- HCT, hematocrit ([9]; female mice): 38.9 +/− 2.3%
- HGB, hemoglobin ([9]; female mice): 13.3 ± 0.8 g/dL
- Iron ([9]; female mice): 25.6 +/− 3.9
- K ([9]; female mice): 5.8 ± 0.5 mmol/L
- MCH, mean corpuscular hemoglobin ([9]; female mice): 16.1 ± 0.2 pg
- MCHC, mean corpuscular hemoglobin concentration ([9]; female mice): 34.2 ± 0.2 g/dL
- MCV, mean corpuscular volume ([9]; female mice): 47.2 ± 0.9 fL
- Magnesium ([9]; female mice): 1.5 ± 0.1 mmol/L
- Na ([9]; female mice): 152 ± 1.0 mmol/L
- Phosphorus ([9]; female mice): 3.2 ± 0.1 mmol/L
- Total protein ([9]; female mice): 48 ± 2.6 g/L
- Triglycerides ([9]; female mice): 0.6 ± 0.1 mmol/L
- Uric acid ([9]; female mice): 193.0 +/− 58.4
- ALAT ([9]; male mice): 34.7 +/− 17.5 U/l
- ALP ([9]; male mice): 114.3 +/− 8.1 U/l
- ASAT ([9]; male mice): 194 +/− 45.5 U/l
- Albumin ([9]; male mice): 27.3 ± 3.5 g/L
- Bilirubin ([9]; male mice): 2.0 +/− 0.3
- Cholesterol ([9]; male mice): 2.2 ± 0.2 mmol/L
- Glucose ([9]; male mice): 21.4 ± 7.2 mmol/L
- HCT, hematocrit ([9]; male mice): 40.0 +/− 3.7%
- HGB, hemoglobin ([9]; male mice): 14.0 ± 1.3 g/dL
- Iron ([9]; male mice): 24.9 +/− 1.4
- K ([9]; male mice): 5.9 mmol/L
- MCH, mean corpuscular hemoglobin ([9]; male mice): 16.0 ± 0.2 pg
- MCHC, mean corpuscular hemoglobin concentration ([9]; male mice): 34.9 ± 0.1 g/dL
- MCV, mean corpuscular volume ([9]; male mice): 45.8 ± 0.5 fL
- Magnesium ([9]; male mice): 1.2 ± 0.2 mmol/L
- Na ([9]; male mice): 149.7 ± 6.1 mmol/L
- Phosphorus ([9]; male mice): 3.6 ± 0.6 mmol/L
- Total protein ([9]; male mice): 48.3 ± 7.1 g/L
- Triglycerides ([9]; male mice): 0.8 ± 0.2 mmol/L
- Uric acid ([9]; male mice): 235.7 +/− 132.5
- Cre-mediated floxed DNA excision (Cre-ERM^Db recombinase activity) (Cre-ERM^Db [2]; F9 clone, ligand 3 μM): efficiently induced Cre-mediated floxed DNA excision
- in vivo clearance ([10]; 1 mg i.p.): high
- plasma levels ([10]; 1 mg i.p., 22 hours after the two-hour sample): undetectable
- concentration at 2 h ([10]; mouse, plasma, ip, two hours after 1 mg i.p.): 550 ng/mL

Compound: CC(C)(C)C(=O)Oc1ccc(C(=O)C(=O)c2ccc(OC(=O)C(C)(C)C)cc2)cc1 [DHBD, 4,4′-dihydroxylbenzyl dipivalate]
- Cre-mediated recombination in Cre-ERM^Db-expressing keratinocytes of ear skin (distal) (Cre-ERM^Db [1]): induced efficient Cre-mediated recombination
- Cre-mediated recombination in Cre-ERM^Db-expressing keratinocytes of tail treated skin (Cre-ERM^Db [1]): induced efficient Cre-mediated recombination

Compound: COc1ccc(C(=O)C(=O)c2ccc(O)cc2)cc1 [HMB, 4-hydroxy-4′-methoxybenzyl]
- Cre-mediated recombination in keratinocytes expressing Cre-ERM^Db (Cre-ERM^Db [1]): Induction of Cre-ERM^Db recombinase activity
